A word on the IC50: it is the point on the concentration scale where inhibition reaches its midpoint.

This passage reports IC50 results from ChEMBL document CHEMBL1150601, “Lyngbouilloside, a novel glycosidic macrolide from the marine cyanobacterium Lyngbya bouillonii” (J Nat Prod, 2002).

The nature of the test: Cytotoxicity against mouse Neuro2a cells. It is filed as functional, cell-based. Particulars: N2a.

As to `CC/C=C/C=C/CC[C@]1(C)C[C@H](O)[C@H](C)CC[C@H]2C[C@@H](O[C@@H]3O[C@@H](C)[C@H](OC)[C@@H](O)[C@H]3OC)C[C@@](O)(CC(=O)O1)O2` [LYNGBOUILLOSIDE], half-maximal inhibition (IC50) required 17 µM.
